Structures can show the parent of a compound that is named as a salt.
What was measured:
ileal tissue = assay: Ileal gene expression profiling by whole genome microarray, 8-week EarlySTAT; type: in vivo, C57BL/6J mice
Method: Ileal gene expression profiling of STAT, PAT, and control animal groups, was performed using the Affymetrix Genechip system (Affymetrix). Total RNA quality and quantity were determined using the Agilent 2100 Bioanalyser and Nanodrop ND-1000. Total RNA (100 ng) was used to prepare cDNA following the Affymetrix […] Express Kit labelling protocol (Affymetrix). Standardized array processing procedures recommended by Affymetrix were performed, including hybridization, fluidics processing and scanning of the Affymetrix MG-430 2.0 arrays. GeneSpring GX11 software (Agilent Technologies) was used to normalize the raw data (Affymetrix CEL files) by Robust Multichip Average algorithm (RMA).
997 reproducibly regulated genes were identified from ˜45,000 genes of the mouse genome by T-test (p<0.05) and fold change (≧1.2 or ≦0.8) in 8-week STAT mice (FIG. 8). DAVID analysis was performed using the regulated genes, and Gene Set Enrichment analysis (GSEA) was performed using whole gene data.

[1] = test system: intestinal microbial communities; assay: EL-PAT: 16S rRNA V4 sequencing of fecal, ileal and cecal microbiota; type: in vivo, C57BL/6 mice
Method: For the experiments, dams and their litters were divided into control and antibiotic groups. In the EL-PAT study dams in the antibiotic groups received Tylosin tartrate (Sigma Aldrich, St. Louis Mo.) dissolved in distilled deionized water (neutral pH) at a concentration of 0.33 mg/ml, and dams in the control group received non-acidified water. Mice in the PAT3 group received two additional doses of antibiotics at day 27 and 36 of life for 3 days. In some experiments, C57BL/6 mice were exposed to one, PAT1, (n=17, M=9, F=8) or three, PAT3, (n=19, M=10, F=9) doses of the macrolide Tylosin in non-acidified water or non-acidified water alone (control, n=12, M=9, F=3), early-in-life, to mirror pediatric antibiotic exposures. For the first antibiotic pulse […] of Tylosin tartrate (Sigma) was dissolved in 250 ml of non-acidified water and given to PAT1 and PAT3 lactating dams at pup day 5 of life for 5 days. For the second and third pulse, pups received the antibiotic directly at day 27 and day 36 of life respectively, for three days. Mice were sacrificed at 7 weeks of age and fecal, ileal and cecal contents were collected. Throughout the experiment mouse weight and fecal contents were collected. Fecal, ileal and cecal DNA were extracted using Mobio 96-well extraction kit (MO BIO Laboratories, Inc., CA). For amplicon library generation, the V4 region of 16s rRNA gene was amplified with gene specific primers (SEQ ID NOS: 39-43). Amplicons were prepared in triplicate, pooled and quantified. The 254 bp V4 region was sequenced using the Illumina MiSeq 2×150 bp platform (Illumina Inc., CA). Forward and reverse reads were joined using the ea-utils module fastq-join. Demultiplexing and operational taxonomic unit (OTU) picking were performed using the bioinformatic tool Qiime, while pair-end reads were demultiplexed with the script split_libraries_fastq.py. Reads were quality filtered at a phred score of 20 using -q flag, and the flag --rev_comp_mapping allowed reading of the reverse complement barcode before demultiplexing. Open referenced OTU picking was performed using pick_open_reference_otus.py script to assign a taxonomy for each OTU representative sequence and build a phylogenetic tree, and an OTU table. For alpha and beta diversity, samples were rarified at a sequencing depth of 1000.

terminal ileum = assay: NOD: ileal gene expression profiling by microarray; type: in vivo, NOD mice; conditions: for differentially regulated genes that were down: PAT vs Control
Method: Ileal gene expression profiling of 6-week control, STAT, and PAT animal groups, was performed using the Affymetrix Genechip system (Affymetrix, Santa Clara Calif.). Total RNA quality and quantity were determined using the Nanodrop ND-1000, agarose gel, and Agilent 2100 Bioanalyser. Total RNA (100 ng) was used to prepare cDNA following the Affymetrix 3′IVT Express Kit labeling protocol (Affymetrix). Standardized array processing procedures recommended by Affymetrix were performed, including hybridization, fluidics processing and scanning of the Affymetrix Mouse Genome 430 2.0 Array chips. The affy package in R was used to normalize the raw data (Affymetrix CEL files) by Robust Multichip Average (RMA) algorithm. Then the limma package was used to identify regulated genes between groups and generate lists of differentially expressed genes using linear models and empirical Bayes method with an FDR-adjusted p-value cut-off of p<0.05 (Smyth, 2004, Statistical Applications in Genetics and Molecular Biology 3, No. 1, Article 3).
RNA was extracted from the terminal ileum of the 6-week old NOD mice. Raw probe intensities were normalized by the Robust Multichip Average (RMA) algorithm using affy package in R and then the limma package was used to identify regulated genes using linear models and empirical Bayes method with an FDR-adjusted p-value cut off of p<0.05 (Smyth 2004, Statistical Applications in Genetics and Molecular Biology 3, No. 1, Article 3.).

[2] = PAT3 group, two additional doses
[3] = at sacrifice, six-weeks (PAT1) and one-week (PAT3) after last pulse
[4] = one therapeutic dose, dams and offspring
[5] = terminal ileum, NOD male mice, microarray
[6] = terminal ileum, NOD male mice, microarray, probe with greatest fold change

Structure (SMILES): CC1(C)S[C@@H]2[C@H](NC(=O)COc3ccccc3)C(=O)N2[C@H]1C(=O)[O-].[K+] [STAT, penicillin VK]
- reproducibly regulated genes out of ~45,000 genes of the mouse genome (ileal tissue; 8-week STAT mice, T-test p<0.05 and fold change ≧1.2 or ≦0.8): 997
- SAA1 expression in ileal tissue (microarray/GSEA) (ileal tissue; 8-week, STAT vs control): strong down-regulation

Structure (SMILES): CC[C@H]1OC(=O)C[C@@H](O)[C@H](C)[C@@H](O[C@@H]2O[C@H](C)[C@@H](O[C@H]3C[C@@](C)(O)[C@@H](O)[C@H](C)O3)[C@H](N(C)C)[C@H]2O)[C@@H](CC=O)C[C@@H](C)C(=O)/C=C/C(C)=C/[C@@H]1CO[C@@H]1O[C@H](C)[C@@H](O)[C@@H](OC)[C@H]1OC [Tylosin, Tylosin tartrate]
- relative abundance of Blautia producta [1, 2]: blooms
- relative abundance of family Enterobacteriaceae [1, 2]: blooms
- ileal evenness [1, 3]: decreases
- ileal richness [1, 3]: decreases
- abundance of Bifidobacterium (ileal, LEfSe) ([1]; early-life PAT): decreases
- abundance of S24-7 (ileal, LEfSe) ([1]; early-life PAT): decreases
- abundance of SFB (ileal, LEfSe) ([1]; early-life PAT): decreases
- relative abundance of Akkermansia muciniphila (ileal, LEfSe) ([1]; early-life PAT): increases
- ileal microbial communities (PCoA, Jenson-Shannon divergence) ([1]; male and female, independent of sex): significantly different from Control
- fecal, cecal and ileal microbial diversity (phylogenetic diversity) ([1]; male pups over time, one or three pulses vs Control): decreases
- intestinal microbial populations (PCoA, weighted Unifrac) ([1]; one and three therapeutic doses early in life, males and females): significantly alters
- Segemented Filamentous Bacteria [1, 4]: loss
- relative abundance of Bacteroides uniformis [1, 4]: blooms
- relative abundance of Akkermansia muciniphila ([1]; one therapeutic dose, dams and offspring, fecal, ileal and cecal samples): blooms
- differentially regulated genes that were down (terminal ileum; NOD females): 42.1%
- differentially regulated genes that were down (terminal ileum; NOD males): 69.3%
- log2 fold change (PAT/control), Arl5b (terminal ileum; [5]): 2.42
- log2 fold change (PAT/control), Bhmt (terminal ileum; [5]): −1.52
- log2 fold change (PAT/control), Ccl20 (terminal ileum; [5]): −0.86
- log2 fold change (PAT/control), Clec2d (terminal ileum; [5]): −0.65
- log2 fold change (PAT/control), Dio1 (terminal ileum; [5]): −1.34
- log2 fold change (PAT/control), Dusp14 (terminal ileum; [5]): 2.22
- log2 fold change (PAT/control), Edn2 (terminal ileum; [5]): −1.67
- log2 fold change (PAT/control), Ereg (terminal ileum; [5]): 1.73
- log2 fold change (PAT/control), G6pc (terminal ileum; [5]): −2.85
- log2 fold change (PAT/control), Gjb3 (terminal ileum; [5]): 0.77
- log2 fold change (PAT/control), Gzma (terminal ileum; [5]): −1.48
- log2 fold change (PAT/control), Il1rn (terminal ileum; [5]): 1.70
- log2 fold change (PAT/control), Il17rd (terminal ileum; [5]): −0.58
- log2 fold change (PAT/control), Irf1 (terminal ileum; [5]): −1.14
- log2 fold change (PAT/control), Maff (terminal ileum; [5]): 2.22
- log2 fold change (PAT/control), Phlda1 (terminal ileum; [5]): 1.96
- log2 fold change (PAT/control), S100a14 (terminal ileum; [5]): 1.00
- log2 fold change (PAT/control), Saa1 (terminal ileum; [5]): −4.00
- log2 fold change (PAT/control), Saa2 (terminal ileum; [5]): −1.44
- log2 fold change (PAT/control), Tifa (terminal ileum; [5]): −1.32
- log2 fold change (PAT/control), Tppp (terminal ileum; [5]): −1.35
- log2 fold change (PAT/control), Acsl3 (terminal ileum; [6]): 1.59
- log2 fold change (PAT/control), Ccl28 (terminal ileum; [6]): −0.64
- log2 fold change (PAT/control), Cd38 (terminal ileum; [6]): −1.02
- log2 fold change (PAT/control), Chka (terminal ileum; [6]): 1.97
- log2 fold change (PAT/control), Flrt3 (terminal ileum; [6]): 2.56
- log2 fold change (PAT/control), Il1rl1 (terminal ileum; [6]): 1.64
- log2 fold change (PAT/control), Klf4 (terminal ileum; [6]): 0.86
- log2 fold change (PAT/control), Slc2a1 (terminal ileum; [6]): 1.26
- log2 fold change (PAT/control), Socs2 (terminal ileum; [6]): −0.77
- log2 fold change (PAT/control), Tnfrsf12a (terminal ileum; [6]): 1.72
- log2 fold change (PAT/control), Tnfsf10 (terminal ileum; [6]): −1.46
- log2 fold change (PAT/control), Zfand2a (terminal ileum; [6]): 2.11
- log2 fold change (PAT/control), Rab30 (terminal ileum; terminal ileum, PAT-treated NOD male mice, 6-week, microarray): 4.27
- log2 fold change (PAT/control), Areg (terminal ileum; terminal ileum, PAT-treated NOD male mice, microarray): 3.94

— patent US20160120915A1, “METHODS FOR MANIPULATING IMMUNE RESPONSES BY ALTERING MICROBIOTA” (NEW YORK UNIVERSITY, priority 2013, published 2016)
